Test results reported in patent US20060189546A1, “Compounds for treating autoimmune and demyelinating diseases” (priority 2005, published 2006).

Tested on: colorectal cancer cell lines (HT29 & HCT116)
Assay: Microarray gene expression, cells grown with Symadex at the GI50 concentration
Assay type: cell-based, human
Excerpt: Two colorectal cancer cell lines (HT29 & HCT116) were chosen for study, whose behavior as rapidly proliferating invasive cells could be generalized to many other such cell types from different tissue origins. The two lines were immortalized colon carcinomas. Their gene expression patterns are known to mimic the behavior of neuro-enteric cells and therefore provide an appropriate simulation of the kinds of regulatory patterns that would be found in cells of similar epithelial or endothelial origin. Cells with these ontological roots are also suitable models for the kinds of autoimmune and inflammatory susceptibilities that are common in tissues of neuroenteric origin, such as those in which inflammatory bowel disease would present itself.
Frozen cell pellets were lysed in triplicate and total RNA isolated by purification over spin columns (all reagents from Ambion). After QC acceptance for purity, total RNA was converted to cRNA by linear amplification and 10 μg samples were applied to CodeLink Human Whole Genome Bioarrays (GE Healthcare and GenUs Biosystems).
Arrays were processed in triplicate and comparisons made after robust statistical analysis of replicate variability. […] False discovery rates and representation in standardized gene ontologies/pathways were then determined by filtering the “fold” changes in expression with open access software packages, EASE and GoMiner, and with Pathways Analysis (Ingenuity Systems). Functional annotations were then explored further in the MedMiner literature search environment.
A listing of these is shown in Table 3, in which the first column data presents the fold change against control, the second column cites the gene symbol, the third column cites the Genbank Accession, and the fourth column provides an abridged description of the gene's function.

CCN(CC)CCNc1ccc2ncn3c4ccc(O)cc4c(=O)c1c23 [Symadex™, 5-[[(diethylamino)ethyl]amino]-8-hydroxyimidazo[4,5,1-de]-acridine-6-one]
fold down-regulation of SULT4A1: ~300 fold
fold down-regulation of SYNE1: 1500 fold
Mean fold change over control: NT5C3 (AA188573): −2.08
Mean fold change over control: SLC9A7 (AA279477): −8.20
Mean fold change over control: PPP2R5A (AA496141): −36.93
Mean fold change over control: ACYP1 (AA664719): −2.07
Mean fold change over control: PRLR (AA708864): −25.92
Mean fold change over control: UBL4 (AA873769): −10.12
Mean fold change over control: PPP1R9A (AB033048): −26.54
Mean fold change over control: MAP6 (AB058781): −12.89
Mean fold change over control: ASAH2 (AF250847): −2.21
Mean fold change over control: MTIF2 (AI064964): −59.05
Mean fold change over control: NEB (AI079911): −6.89
Mean fold change over control: MGAT4A (AI364966): −10.83
Mean fold change over control: EIF2AK4 (AI630242): −15.24
Mean fold change over control: ATP1B4 (AI659245): −8.24
Mean fold change over control: VAPA (AI671488): −12.46
Mean fold change over control: PAFAH1B1 (AI674778): −12.85
Mean fold change over control: PMPCB (AK090763): −15.36
Mean fold change over control: IL1RAP (AK095107): −11.23
Mean fold change over control: PFKL (AK098228): −10.55
Mean fold change over control: KIF5A (AL118561): −11.04
Mean fold change over control: LNX (AL565198): −87.48
Mean fold change over control: ACTA2 (AL713608): −17.00
Mean fold change over control: DHFR (AU127142): −2.95
Mean fold change over control: SIN3B (AW051366): −2.93
Mean fold change over control: NDUFV3 (AW139027): −10.52
Mean fold change over control: TSFM (AW603708): −2.11
Mean fold change over control: PXN (AW969600): −6.00
Mean fold change over control: PTPRG (BC047734): −18.91
Mean fold change over control: TRA2A (BF093914): −2.55
Mean fold change over control: RPL4 (BF308998): −39.17
Mean fold change over control: PLXNA3 (BF926082): −8.04
Mean fold change over control: ITGA9 (BF959890): −27.91
Mean fold change over control: MT2A (BG505162): −2.09
Mean fold change over control: PECAM1 (BG739826): −17.53
Mean fold change over control: NCF1 (BI021745): −33.67
Mean fold change over control: FNTA (BI715309): −9.02
Mean fold change over control: RB1 (BI769614): −84.42
Mean fold change over control: ENG (BM665467): −6.35
Mean fold change over control: MT1A (BM684446): −16.21
Mean fold change over control: RPS3 (BM693455): −68.37
Mean fold change over control: MAPT (BM714794): −26.53
Mean fold change over control: NT5E (BM994339): −17.10
Mean fold change over control: MXD3 (BQ053282): −2.66
Mean fold change over control: RYR3 (BU533957): −2.43
Mean fold change over control: ZNF145 (BU607554): −30.18
Mean fold change over control: CASR (BX106711): −11.45
Mean fold change over control: EIF4EL3 (BX111619): −15.36
Mean fold change over control: GNAL (BX116836): −18.16
Mean fold change over control: GPR1 (CB992712): −11.49
Mean fold change over control: OLR1 (CD678960): −16.33
Mean fold change over control: TMPO (H57815): −2.64
Mean fold change over control: ACVRL1 (NM_000020): −9.43
Mean fold change over control: AGT (NM_000029): −22.71
Mean fold change over control: APOA1 (NM_000039): −13.15
Mean fold change over control: BLM (NM_000057): −2.58
Mean fold change over control: COL1A2 (NM_000089): −54.48
Mean fold change over control: CYP19A1 (NM_000103): −20.65
Mean fold change over control: FBN1 (NM_000138): −13.00
Mean fold change over control: GIPR (NM_000164): −19.73
Mean fold change over control: GLA (NM_000169): −2.51
Mean fold change over control: SPTB (NM_000347): −16.71
Mean fold change over control: ITGA2B (NM_000419): −10.64
Mean fold change over control: NCF2 (NM_000433): −21.83
Mean fold change over control: OXCT (NM_000436): −2.68
Mean fold change over control: SHOX (NM_000451): −7.34
Mean fold change over control: HNF4A (NM_000457): −7.42
Mean fold change over control: NR0B1 (NM_000475): −15.94
Mean fold change over control: TYRP1 (NM_000550): −12.47
Mean fold change over control: IL13RA2 (NM_000640): −9.79
Mean fold change over control: ADH1C (NM_000669): −12.02
Mean fold change over control: CHRNA5 (NM_000745): −2.14
Mean fold change over control: DCK (NM_000788): −1.94
Mean fold change over control: GABRA3 (NM_000808): −10.14
Mean fold change over control: PRIM1 (NM_000946): −3.47
Mean fold change over control: SCNN1G (NM_001039): −14.52
Mean fold change over control: SLC6A4 (NM_001045): −19.44
Mean fold change over control: ADCYAP1 (NM_001117): −21.74
Mean fold change over control: BIRC5 (NM_001168): −1.91
Mean fold change over control: PRDM1 (NM_001198): −3.78
Mean fold change over control: CSE1L (NM_001316): −2.53
Mean fold change over control: TADA2L (NM_001488): −2.04
Mean fold change over control: HSPB2 (NM_001541): −13.76
Mean fold change over control: BGN (NM_001711): −12.57
Mean fold change over control: CD58 (NM_001779): −2.40
Mean fold change over control: CDC2 (NM_001786): −2.09
Mean fold change over control: CDC25C (NM_001790): −2.99
Mean fold change over control: CKS1B (NM_001826): −2.38
Mean fold change over control: CREM (NM_001881): −2.13
Mean fold change over control: DSC3 (NM_001941): −89.97
Mean fold change over control: DUT (NM_001948): −2.08
Mean fold change over control: FBLN1 (NM_001996): −17.42
Mean fold change over control: FCAR (NM_002000): −11.62
Mean fold change over control: H2AFX (NM_002105): −2.31
Mean fold change over control: H2AFZ (NM_002106): −2.35
Mean fold change over control: HMGB1 (NM_002128): −1.97
Mean fold change over control: HNRPA2B1 (NM_002137): −1.93
Mean fold change over control: IL7R (NM_002185): −25.20
Mean fold change over control: ITGAE (NM_002208): −2.12
Mean fold change over control: KCNJ15 (NM_002243): −6.83
Mean fold change over control: KRT13 (NM_002274): −3.34
Mean fold change over control: LTB (NM_002341): −12.57
Mean fold change over control: MAD2L1 (NM_002358): −3.14
Mean fold change over control: MAZ (NM_002383): −1.89
Mean fold change over control: NUDT1 (NM_002452): −1.89
Mean fold change over control: NDUFA6 (NM_002490): −2.51
Mean fold change over control: NDUFB3 (NM_002491): −15.58
Mean fold change over control: NFKBIB (NM_002503): −2.01
Mean fold change over control: NTHL1 (NM_002528): −2.34
Mean fold change over control: PAFAH1B2 (NM_002572): −2.25
Mean fold change over control: PCSK2 (NM_002594): −16.89
Mean fold change over control: POLE2 (NM_002692): −2.62
Mean fold change over control: MAPK13 (NM_002754): −2.14
Mean fold change over control: RAD51 (NM_002875): −2.21
Mean fold change over control: RFC4 (NM_002916): −2.02
Mean fold change over control: RPA3 (NM_002947): −2.54
Mean fold change over control: SFRS3 (NM_003017): −2.84
Mean fold change over control: ITSN1 (NM_003024): −15.06
Mean fold change over control: SNAI2 (NM_003068): −17.45
Mean fold change over control: SRY (NM_003140): −13.79
Mean fold change over control: TFAP2A (NM_003220): −11.00
Mean fold change over control: TK1 (NM_003258): −2.34
Mean fold change over control: NR2E1 (NM_003269): −54.82
Mean fold change over control: TNP1 (NM_003284): −36.20
Mean fold change over control: TTK (NM_003318): −2.24
Mean fold change over control: VRK1 (NM_003384): −2.79
Mean fold change over control: DEK (NM_003472): −2.36
Mean fold change over control: CSRP3 (NM_003476): −26.26
Mean fold change over control: ZNF282 (NM_003575): −31.24
Mean fold change over control: FOXN1 (NM_003593): −9.60
Mean fold change over control: STK6 (NM_003600): −1.92
Mean fold change over control: SEMA7A (NM_003612): −16.54
Mean fold change over control: HAT1 (NM_003642): −2.63
Mean fold change over control: COPS3 (NM_003653): −2.54
Mean fold change over control: CAMK1 (NM_003656): −1.92
Mean fold change over control: IL1RL1 (NM_003856): −28.60
